Nine molecules from ChEMBL document CHEMBL2396652 (Bioorg Med Chem Lett, 2013) can be followed below.

SMILES strings stand for the structures. Calls of active or inactive are those of the source. The calls are words filed in the database; no cut-off is given here.

One may read the EC50 as the concentration needed to bring the measured effect to its halfway point. As a reminder, the Emax is the greatest response seen or fitted, relative to the assay's reference.

Test [1] deals with T1, Mu-type opioid receptor (Homo sapiens, UniProt P35372). In words: Agonist activity at mu opioid receptor (unknown origin) expressed CHO cells assessed as stimulation of [35S]-GTP[gammaS] binding. The test is classed as cell-based. Background: GTPγS is a poorly hydrolysed GTP analogue; its binding reports G protein activation.
T1 sequence (P35372 whole entry): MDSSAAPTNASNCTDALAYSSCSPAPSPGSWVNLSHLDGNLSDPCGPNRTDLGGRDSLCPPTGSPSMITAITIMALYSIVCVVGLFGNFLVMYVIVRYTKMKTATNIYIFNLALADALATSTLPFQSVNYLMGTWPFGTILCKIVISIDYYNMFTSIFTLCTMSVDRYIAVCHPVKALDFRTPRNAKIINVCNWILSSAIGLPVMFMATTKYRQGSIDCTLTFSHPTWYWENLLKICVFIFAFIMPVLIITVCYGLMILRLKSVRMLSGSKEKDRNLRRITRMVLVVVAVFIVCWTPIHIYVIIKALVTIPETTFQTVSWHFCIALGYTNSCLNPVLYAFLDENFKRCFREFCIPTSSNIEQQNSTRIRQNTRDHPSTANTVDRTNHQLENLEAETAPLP
For test [2], the species on record is Homo sapiens. In words: Selectivity ratio of Ki for delta opioid receptor (unknown origin) to Ki for mu opioid receptor (unknown origin).
The target in test [3] is T1, Mu-type opioid receptor. Briefly: Agonist activity at mu opioid receptor (unknown origin) expressed CHO cells assessed as stimulation of [35S]-GTP[gammaS] binding relative to DAMGO. The test is classed as cell-based.
The species named for test [4] is Homo sapiens. Briefly: Selectivity ratio of Ki for kappa opioid receptor (unknown origin) to Ki for mu opioid receptor (unknown origin).
Test [5] concerns the target T1, Mu-type opioid receptor. In words: Antagonist activity at mu opioid receptor (unknown origin) expressed CHO cells assessed as inhibition of [35S]-GTP[gammaS] binding. It is filed as cell-based.
Test [6] has as its target T1, Mu-type opioid receptor. In words: Agonist activity at mu opioid receptor (unknown origin) expressed CHO cells assessed as stimulation of [35S]-GTP[gammaS] binding at 10 uM relative to DAMGO. It is filed as cell-based.

For the molecule `O=C(N[C@@]12CCC(=O)[C@@H]3Oc4c(O)ccc5c4[C@@]31CCN(CC1CC1)[C@@H]2C5)c1ccncc1`, the EC50 at Mu-type opioid receptor [1] came to 1.67 nM. The figures for the Ratio Ki in the test filed under Homo sapiens [2] and in the test listed under Homo sapiens [4] were 13 and 0.4, respectively. Besides, the Emax on Mu-type opioid receptor [3] was determined as 7.74%.

Take `O=C(N[C@@]12CCC(=O)[C@@H]3Oc4c(O)ccc5c4[C@@]31CCN(CC1CC1)[C@@H]2C5)c1ccccn1`: the Ratio Ki came out at 63 in the test filed under Homo sapiens [2] and 0.24 in the test filed under Homo sapiens [4]. For the same molecule, the inhibition result on Mu-type opioid receptor [5] was “Active”. For the same molecule, the Emax on Mu-type opioid receptor [6] came to 0.9%.

`O=C(N[C@@]12CCC(=O)[C@@H]3Oc4c(O)ccc5c4[C@@]31CCN(CC1CC1)[C@@H]2C5)c1cnc2ccccc2c1`: the EC50 on Mu-type opioid receptor [1] is 2.81 nM. Also, the figures for the Ratio Ki in the test listed under Homo sapiens [2] and in the test listed under Homo sapiens [4] were 1.3 and 0.12, respectively. Further, the Emax at Mu-type opioid receptor [3] amounted to 15.8%.

Take `O=C(N[C@@]12CCC(=O)[C@@H]3Oc4c(O)ccc5c4[C@@]31CCN(CC1CC1)[C@@H]2C5)c1cccnc1`: the Ratio Ki in the test listed under Homo sapiens [2] came to 53; in the test filed under Homo sapiens [4], 0.21. In addition, on Mu-type opioid receptor [5], the inhibition result was “Active”. In addition, the Emax on Mu-type opioid receptor [6] turned out to be 5.09%.

For the molecule `O=C(N[C@@]12CCC(=O)[C@@H]3Oc4c(O)ccc5c4[C@@]31CCN(CC1CC1)[C@@H]2C5)c1ccc2ccccc2n1`, the EC50 on Mu-type opioid receptor [1] came out at 38.8 nM. In addition, the values for the Ratio Ki in the test listed under Homo sapiens [2] and in the test filed under Homo sapiens [4] were 1.7 and 0.03, respectively. Moreover, the Emax on Mu-type opioid receptor [3] was determined as 34.4%.

On to `O=C(N[C@@]12CCC(=O)[C@@H]3Oc4c(O)ccc5c4[C@@]31CCN(CC1CC1)[C@@H]2C5)c1ccccc1`, for which, at Mu-type opioid receptor [1], the EC50 is 7.2 nM. Besides, the figures for the Ratio Ki in the test filed under Homo sapiens [2] and in the test listed under Homo sapiens [4] were 13 and 0.03, respectively. Moreover, the Emax at Mu-type opioid receptor [3] stood at 5.79%.

`O=C(N[C@@]12CCC(=O)[C@@H]3Oc4c(O)ccc5c4[C@@]31CCN(CC1CC1)[C@@H]2C5)c1ccc2ccccc2c1`: the EC50 at Mu-type opioid receptor [1] was determined as 11.1 nM. Besides, the Ratio Ki in the test listed under Homo sapiens [2] came out at 1.7; in the test filed under Homo sapiens [4] it was 0.05. Further, the Emax on Mu-type opioid receptor [3] is 16.5%.

As for `O=C(N[C@@]12CCC(=O)[C@@H]3Oc4c(O)ccc5c4[C@@]31CCN(CC1CC1)[C@@H]2C5)c1cc2ccccc2cn1`, the Ratio Ki in the test listed under Homo sapiens [2] came out at 7.2; in the test filed under Homo sapiens [4] it was 0.07. Also, the inhibition entry at Mu-type opioid receptor [5] was “Active”. For the same molecule, at Mu-type opioid receptor [6], the Emax stood at 2.84%.

For the molecule `COc1cccc2c1[C@]13CCN(CC4CC4)[C@H](C2)[C@]1(OC)CCC(=O)C3`, the figures for the Ratio Ki in the test listed under Homo sapiens [2] and in the test listed under Homo sapiens [4] were 40 and 45, respectively.
